# According to US20080213863A1, “Method of Controlling Viral Outbreak” (priority 2003, published 2008):
# Assays:
# [1] = tested on: HIV-1; test: HIV-1 binding to cells; assay type: cell-based; conditions: treatment of the virus or cells
# Source text: (§1) As described above, budding of HIV-1 particles occurs at lipid rafts, which are characterized by a distinct lipid composition that includes high concentrations of cholesterol, sphingolipids, and glycolipids. Since cholesterol plays a key role in the entry of some other viruses, the role in HIV-1 entry of cholesterol and lipid rafts in the plasma membrane of susceptible cells was investigated. […] A β-CD derivative, 2-hydroxypropyl-β-cyclodextrin (2-OH-β-CD), was used to deplete cellular cholesterol and disperse lipid rafts. As disclosed herein, removal of cellular cholesterol rendered primary cells and cell lines highly resistant to HIV-1-mediated syncytium formation and to infection by both CXCR4- and CCR5-specific strains of HIV-1 virus. […] Cholesterol depletion also made cells resistant to SDF-1-induced binding to ICAM-1 through LFA-1.
# [2] = tested on: Jurkat cells
# [3] = tested on: CD4+ HIV-susceptible target cells; test: Depletion of total cellular cholesterol by 2-OH-β-CD treatment; assay type: cell-based; conditions: 10 to 20 mM for 1 hour at 37° C., then washing
# Source text: The role of lipid rafts in the HIV-1 fusion process was examined by treating CD4+ HIV-susceptible target cells with 2-OH-β-CD to deplete membrane cholesterol and disperse lipid rafts.
# [4] = tested on: HIV-1; test: Capture of HIV-1 by MAbs against host and viral proteins, measured as percentage of total p24; assay type: cell-based
# Source text: By removing cholesterol, 2-OH-β-CD is believed to partially perturb organized lipid rafts, resulting in dispersal of their components (Ilangumaran and Hoessli, Biochem. J. 335:433-440, 1998).
# [5] = tested on: CD4; chemokine receptors; test: CD4 expression and antibody-mediated internalization of chemokine receptors; assay type: cell-based; conditions: treatment of the virus or cells
# [6] = tested on: treated cells
# [7] = tested on: LFA-1; test: SDF-1-induced binding of cells to ICAM-1 through LFA-1; assay type: cell-based; conditions: cholesterol-depleted cells
# Source text: as §1
# [8] = tested on: HIV-1; test: HIV-1-mediated syncytium formation; assay type: cell-based; conditions: treatment of target cells
# [9] = tested on: HIV-1; test: Infection of primary cells and cell lines by HIV-1 strains; assay type: cell-based; conditions: primary cells and cell lines treated
# [10] = after treating cells, percentage of total p24
substance,measurement,setting,value
2-hydroxypropyl-β-cyclodextrin [2-OH-β-CD],HIV-1 binding,[1],partially reduced
same,Ca2+ flux responses to anti-CD3 MAb,[2],still showed Ca^2+ flux responses
same,depletion of total cellular cholesterol,[3],greater than 70%
same,CD45 capture of HIV-1,[4]; after treating cells,remained unaffected
same,capture of HIV-1 by MAb against CD59,[4]; [10],decreased substantially
same,capture of HIV-1 by MAb against gp41,[4]; [10],decreased substantially
same,overall cellular release of p24,[4]; after treatment,increased
same,CD4 expression,[5],no effect
same,antibody-mediated internalization of chemokine receptors,[5],highly sensitive
same,cell growth after treatment,[6],continued to grow normally
same,SDF-1-induced binding to ICAM-1 through LFA-1,[7],resistant
same,syncytium formation of primary cells and cell lines,[8],blocked syncytium formation
same,infection by CXCR4-specific and CCR5-specific HIV-1 strains,[9],rendered resistant
